Results reported in US6215002A, “Pyrrolopyrrolone derivatives as inhibitors of neutrophil elastase” (priority 1996, dated 2001).
pIC50: −log10 of the molar value. Structures can show the parent of a compound that is named as a salt.

molecular target: T1, human neutrophil elastase (Homo sapiens, UniProt P08246); test: In vitro assay of human neutrophil elastase (HNE); assay type: biochemical; conditions: 118 nM purified human neutrophil elastase, pH 8.6, 15 min incubation at 30° C., MeO-succinyl-alanyl-alanyl-prolyl-valyl-p-nitroanilide substrate; read-out: HNE IC50
T1 sequence (P08246 30-267): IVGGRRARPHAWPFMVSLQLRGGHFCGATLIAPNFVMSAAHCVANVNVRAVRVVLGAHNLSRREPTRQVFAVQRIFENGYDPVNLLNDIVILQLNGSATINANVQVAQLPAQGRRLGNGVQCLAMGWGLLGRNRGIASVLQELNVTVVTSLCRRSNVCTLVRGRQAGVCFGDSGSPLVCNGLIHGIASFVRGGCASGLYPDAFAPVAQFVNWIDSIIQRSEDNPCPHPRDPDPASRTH
Method in brief: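 Residual activity was taken as the 10 min rate of absorbance rise at 405 nm after adding 0.6 mM MeO-succinyl-AAPV-p-nitroanilide. Curve fitting of activity against concentration gave IC50.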

pIC50	SMILES
6.87	CCC[C@H]1C(=O)N(S(C)(=O)=O)[C@H]2CCN(C(=O)CNC)[C@H]12 (relative stereo) [Example 110, rel-(3R,3aR,6aS)-1-Methanesulfonyl-4-methylaminoacetyl-3-propyl-hexahydro-pyrrolo[3,2-b]pyrrol-2-one trifluoroacetate]
6.24	CCC[C@H]1C(=O)N(S(C)(=O)=O)[C@H]2CCN(C(=O)C3CCCN3C)[C@H]12 (relative stereo) [Example 111, rel-(3R,3aR,6aS)-1-Methanesulfonyl-4-(1-methyl-pyrrolidine-2-carbonyl)-3-propyl-hexahydro-pyrrolo[3,2-b]pyrrol-2-one]
6.65	CCC[C@H]1C(=O)N(S(C)(=O)=O)[C@H]2CCN(C(=O)Cn3ccccc3=O)[C@H]12 (relative stereo) [Example 112, rel-(3R,3aR,6aS)-1-Methanesulfonyl-4-[(2-oxo-2H-pyridin-1-yl)-acetyl]-3-propyl-hexahydro-pyrrolo[3,2-b]pyrrol-2-one]
6.52	CCC[C@H]1C(=O)N(S(C)(=O)=O)[C@H]2CCN(C(=O)Cn3ccc(=O)cc3)[C@H]12 (relative stereo) [Example 113, rel-(3R,3aR,6aS)-1-Methanesulfonyl-4-[(4-oxo-4H-pyridin-1-yl)-acetyl]-3-propyl-hexahydro-pyrrolo[3,2-b]pyrrol-2-one]
7.38	CCC[C@H]1C(=O)N(S(C)(=O)=O)[C@H]2CCN(C(=O)CNC(C)=O)[C@H]12 (relative stereo) [Example 114, rel-N-[2-(4-Methanesulfonyl-5-oxo-6R-propyl-hexahydro-(3aS,6aR)-pyrrolo[3,2-b]pyrrol-1-yl)-2-oxo-ethyl]-acetamide]
7.47	CCC[C@H]1C(=O)N(S(C)(=O)=O)[C@H]2CCN(S(=O)(=O)c3ccc(C(=O)N4CCCCC4)cc3)[C@H]12 (relative stereo) [Example 119, rel-(3R,3aR,6aS)-1-Methanesulfonyl-4-[4-(piperidine-1-carbonyl)-benzenesulfonyl]-3-propyl-hexahydro-pyrrolo[3,2-b]pyrrol-2-one]
7.38	CCC[C@H]1C(=O)N(S(C)(=O)=O)[C@H]2CCN(C(=O)c3ccc(NC(C)=O)cc3)[C@H]12 (relative stereo) [Example 120, rel-N-[4-(4-Methanesulfonyl-5-oxo-6R-propyl-hexahydro-(3aS,6aR)-pyrrolo[3,2-b]pyrrole-1-carbonyl)-phenyl]-acetamide]
7.85	CCC[C@H]1C(=O)N(S(C)(=O)=O)[C@H]2CCN(S(=O)(=O)c3ccc(C(=O)NCCN4CCCCC4)cc3)[C@H]12 (relative stereo) [Example 121, rel-4-(4-Methanesulfonyl-5-oxo-6R-propyl-hexahydro-(3aS,6aR)-pyrrolo[3,2-b]pyrrole-1-sulfonyl)-N-(2-piperidin-1-yl-ethyl)-benzamide hydrochloride]
8.40	CCC[C@H]1C(=O)N(S(C)(=O)=O)[C@H]2CCN(S(=O)(=O)c3ccc(C(=O)O)cc3)[C@@H]12 (relative stereo) [Example 122, rel-(3aS,6R,6aS)-4-(4-Methanesulfonyl-5-oxo-6-propyl-hexahydro-pyrrolo[3,2-b]pyrrole-1-sulfonyl)-benzoic acid]
7.85	CCC[C@H]1C(=O)N(S(C)(=O)=O)[C@H]2CCN(S(=O)(=O)c3ccc(C(=O)NCCN(C)C)cc3)[C@H]12 (relative stereo) [Example 123, rel-N-(2-Dimethylamino-ethyl)-4-(4-methanesulfonyl-5-oxo-6R-propyl-hexahydro-(3aS,6aR)-pyrrolo[3,2-b]pyrrole-1-sulfonyl)-benzamide hydrochloride]
8.10	CCC[C@H]1C(=O)N(S(C)(=O)=O)[C@H]2CCN(S(=O)(=O)c3ccc(C(=O)NC)cc3)[C@H]12 (relative stereo) [Example 124, rel-(3aS,6R,6aR)-4-(4-Methanesulfonyl-5-oxo-6-hexahydro-pyrrolo[3,2-b]pyrrole-1-sulfonyl)-N-methyl-benzamide]
7.89	CCC[C@H]1C(=O)N(S(C)(=O)=O)[C@H]2CCN(S(=O)(=O)c3ccc(C(=O)NC4CC4)cc3)[C@H]12 (relative stereo) [Example 125, rel-N-Cyclopropyl-4-(4-methanesulfonyl-5-oxo-6R-propyl-hexahydro-(3aS,6aR)-pyrrolo[3,2-b]pyrrole-1-sulfonyl)-benzamide]
8.00	CCC[C@H]1C(=O)N(S(C)(=O)=O)[C@H]2CCN(S(=O)(=O)c3ccc(C(=O)N(C)C)cc3)[C@H]12 (relative stereo) [Example 126, rel-4-(4-Methanesulfonyl-5-oxo-6R-propyl-hexahydro-(3aS,6aR)-pyrrolo[3,2-b]pyrrole-1-sulfonyl)-N,N-dimethyl-benzamide]
7.40	CCC[C@H]1C(=O)N(S(C)(=O)=O)[C@H]2CCN(S(=O)(=O)c3ccc(C(=O)N4CCN(C)CC4)cc3)[C@H]12 (relative stereo) [Example 127, rel-(3R,3aR,6aS)-1-Methanesulfonyl-4-[4-(4-methyl-piperazine-1-carbonyl)-benzenesulfonyl]-3-propyl-hexahydro-pyrrolo[3,2-b]pyrrol-2-one hydrochloride]
7.52	CCC[C@H]1C(=O)N(S(C)(=O)=O)[C@H]2CCN(C(=O)/C=C/C(=O)OCC)[C@H]12 (relative stereo) [Example 128, rel-(3R,3aR,6aS)-4-(4-Methanesulfonyl-5-oxo-6-propyl-hexahydro-pyrrolo[3,2-b]pyrrole-1-yl)-4-oxo-but-2E-enoic acid ethyl ester]
7.85	CCC[C@H]1C(=O)N(S(C)(=O)=O)[C@H]2CCN(C(=O)/C=C/C(=O)O)[C@H]12 (relative stereo) [Example 129, rel-4-(4-Methanesulfonyl-5-oxo-6R-propyl-hexahydro-(3aS,6aR)-pyrrolo[3,2-b]pyrrol-1-yl)-oxo-but-2-E-enoic acid]
7.33	CCC[C@H]1C(=O)N(S(C)(=O)=O)[C@H]2CCN(C(=O)/C=C/C(=O)N3CCN(C)CC3)[C@H]12 (relative stereo) [Example 130, rel-(3R,3aR,6aS)-1-(4-Methanesulfonyl-5-oxo-6-propyl-hexahydro-pyrrolo[3,2-b]pyrrol-1-yl)-4-(4-methyl-piperazin-1-yl)-but-2E-ene-1,4-dione hydrochloride]
6.99	C/C=C/C(=O)N1CC[C@H]2[C@H]1[C@@H](CCC)C(=O)N2S(C)(=O)=O (relative stereo) [Example 131, rel-(3R,3aR,6aS)-4-But-2E-enoyl-1-methanesulfonyl-3-propyl-hexahydro-pyrrolo[3,2-b]pyrrol-2-one]
7.08	CCC[C@H]1C(=O)N(S(C)(=O)=O)[C@H]2CCN(C(=O)/C=C/c3ccc(CN4CCN(C)CC4)cc3)[C@H]12 (relative stereo) [Example 132, rel-(3R,3aR,6aS)-1-Methanesulfonyl-4-{3-(4-(4-methyl-piperazin-1-ylmethy)-phenyl-(E)-acryloyl}-3-propyl-hexahydro-pyrrolo[3,2-b]pyrrol-2-one dihydrochloride]
7.21	CCC[C@H]1C(=O)N(S(C)(=O)=O)[C@H]2CCN(C(=O)/C=C/c3ccc(CN4CCCCC4)cc3)[C@H]12 (relative stereo) [Example 133, rel-(3R,3aR,6aS)-1-Methanesulfonyl-4-[3-(4-piperidin-1-ylmethyl-phenyl)-(E)-acryloyl]-3-propyl-hexahydro-pyrrolo[3,2-b]pyrrol-2-one hydrochloride]
7.64	CCC[C@H]1C(=O)N(S(C)(=O)=O)[C@H]2CCN(C(=O)/C=C/c3ccc(NC(C)=O)cc3)[C@H]12 (relative stereo) [Example 134, rel-N-{4-[3-(4-Methanesulfonyl-5-oxo-6R-propyl-hexahydro-(3aS,6aR)-pyrrolo[3,2-b]pyrrol-1-yl)-3-oxo-(E)-propenyl]-phenyl}acetamide]
6.80	CO[C@H]1C(=O)N(S(C)(=O)=O)[C@H]2CCN(C(=O)OCc3ccccc3)[C@H]12 (relative stereo) [Example 156, rel-(3aS,6R,6aS)-4-Methanesulfonyl-6-methoxy-5-oxo-hexahydro-pyrrolo[3,2-b]pyrrole-1-carboxylic acid benzyl ester]
6.68	CS[C@H]1C(=O)N(S(C)(=O)=O)[C@H]2CCN(C(=O)OCc3ccccc3)[C@H]12 (relative stereo) [Example 157]
6.92	CCC[C@H]1C(=O)N(S(=O)(=O)CC)[C@H]2CCN(C(=O)CCN3CCCCC3)[C@H]12 (relative stereo) [Example 160, rel-(3R,3aR,6aS)-1-Ethanesulfonyl-4-(3-piperidin-1-yl-propionyl)-3-propyl-hexahydro-pyrrolo[3,2-b]pyrrol-2-one DL-tartrate]
5.99	CCC[C@H]1C(=O)N(S(=O)(=O)C(C)C)[C@H]2CCN(C(=O)CCN3CCCCC3)[C@H]12 (relative stereo) [Example 161, rel-(3R,3aR,6aS)-4-(3Piperidin-1-yl-propionyl)-1-(propane-2-sulfonyl)-3-propyl-hexahydro-pyrrol[3,2-b]pyrrol-2-one DL-tartrate]
7.21	CCC[C@H]1C(=O)N(S(=O)(=O)CCC)[C@H]2CCN(C(=O)CCN3CCCCC3)[C@H]12 (relative stereo) [Example 162, rel-(3R,3aR,6aS)-4-(3-Piperidin-1-yl-propionyl)-1-(propane-1-sulfonyl)-3-propyl-hexahydro-pyrrolo[3,2-b]pyrrol-2-one DL-tartrate]
6.99	CCCCS(=O)(=O)N1C(=O)[C@H](CCC)[C@@H]2[C@@H]1CCN2C(=O)CCN1CCCCC1 (relative stereo) [Example 163, rel-(3R,3aR,6aS)-1-(Butane-1-sulfonyl)-4-(3-piperidin-1-yl-propionyl)-3-propyl-hexahydro-pyrrolo[3,2-b]pyrrol-2-one DL-tartrate]
